The species named for one assay is Sus scrofa. The assay is described as follows: Inhibition of trypsin in pig pancreas at 15 uM.
The target of another assay is Cathepsin B (Bos taurus) (UniProt P07688). The experiment in a line: Inhibition of cathepsin B in bovine spleen at 15 uM.
A short description of assay [1]: Inhibition of alpha-chymotrypsin in bovine pancreas. Further details: species or system Bos taurus.

pIC50: −log10 of the molar value. The source made the active and inactive calls. The calls are words filed in the database; no cut-off is given here.

As for `CCCCCC(=O)N[C@@H](CC(=O)O)C(=O)N[C@@H]1C(=O)N[C@@H](Cc2ccc(O)cc2)C(=O)N[C@H]2CC[C@@H](O)N(C2=O)[C@@H](CC(C)C)C(=O)N(C)[C@@H](Cc2ccccc2)C(=O)N[C@@H](C(C)C)C(=O)O[C@@H]1C` [CYANOPEPTOLIN 963A], the result in the assay filed under Sus scrofa and on Cathepsin B (Bos taurus) was inactive. This compound also had a pIC50 in assay [1] of 6.05.
Regarding `CC[C@H](C)[C@@H]1NC(=O)[C@H](Cc2ccc(O)cc2)N(C)C(=O)[C@H](Cc2ccccc2)N2C(=O)[C@H](CC[C@H]2O)NC(=O)[C@H](Cc2ccccc2)NC(=O)[C@@H](NC(=O)[C@@H](O)COP(=O)(O)O)[C@@H](C)OC1=O` [MICROPEPTIN T 20], the pIC50 in assay [1] is 8.60.

Source of the values: ChEMBL document CHEMBL1148932, “Cyanopeptolin 963A, a chymotrypsin inhibitor of Microcystis PCC 7806” (J Nat Prod, 2004).
